Read-outs that look alike come from different tables or passages of the source.
How the values were obtained:
[1] = Microsomal stability assay, rat; format: in vitro ADME; settings: metabolic stability, rat liver microsomes 0.5 mg/mL, substrate 3 uM
Procedure, shortened: (§1)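 Liver microsomes at 0.5 mg/mL protein in 100 mM KPO4 buffer, incubated with 3 uM compound and NADPH-regenerating system, run in duplicate. Samples taken at 2, 12, 25, 45 and 65 min and quenched in MeOH/ACN/water before analysis.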

[2] = Microsomal stability assay, dog; format: in vitro ADME; settings: metabolic stability, dog liver microsomes 0.5 mg/mL, substrate 3 uM
Procedure, shortened: as §1

[3] = target: wild-type human cardiac sodium channel, hNav1.5 (peak INa) (Homo sapiens, UniProt Q14524); assay: Peak INa screening assay (tonic and use-dependent block); format: cell-based
Chain of wild-type human cardiac sodium channel, hNav1.5 (peak INa) (Q14524 whole entry): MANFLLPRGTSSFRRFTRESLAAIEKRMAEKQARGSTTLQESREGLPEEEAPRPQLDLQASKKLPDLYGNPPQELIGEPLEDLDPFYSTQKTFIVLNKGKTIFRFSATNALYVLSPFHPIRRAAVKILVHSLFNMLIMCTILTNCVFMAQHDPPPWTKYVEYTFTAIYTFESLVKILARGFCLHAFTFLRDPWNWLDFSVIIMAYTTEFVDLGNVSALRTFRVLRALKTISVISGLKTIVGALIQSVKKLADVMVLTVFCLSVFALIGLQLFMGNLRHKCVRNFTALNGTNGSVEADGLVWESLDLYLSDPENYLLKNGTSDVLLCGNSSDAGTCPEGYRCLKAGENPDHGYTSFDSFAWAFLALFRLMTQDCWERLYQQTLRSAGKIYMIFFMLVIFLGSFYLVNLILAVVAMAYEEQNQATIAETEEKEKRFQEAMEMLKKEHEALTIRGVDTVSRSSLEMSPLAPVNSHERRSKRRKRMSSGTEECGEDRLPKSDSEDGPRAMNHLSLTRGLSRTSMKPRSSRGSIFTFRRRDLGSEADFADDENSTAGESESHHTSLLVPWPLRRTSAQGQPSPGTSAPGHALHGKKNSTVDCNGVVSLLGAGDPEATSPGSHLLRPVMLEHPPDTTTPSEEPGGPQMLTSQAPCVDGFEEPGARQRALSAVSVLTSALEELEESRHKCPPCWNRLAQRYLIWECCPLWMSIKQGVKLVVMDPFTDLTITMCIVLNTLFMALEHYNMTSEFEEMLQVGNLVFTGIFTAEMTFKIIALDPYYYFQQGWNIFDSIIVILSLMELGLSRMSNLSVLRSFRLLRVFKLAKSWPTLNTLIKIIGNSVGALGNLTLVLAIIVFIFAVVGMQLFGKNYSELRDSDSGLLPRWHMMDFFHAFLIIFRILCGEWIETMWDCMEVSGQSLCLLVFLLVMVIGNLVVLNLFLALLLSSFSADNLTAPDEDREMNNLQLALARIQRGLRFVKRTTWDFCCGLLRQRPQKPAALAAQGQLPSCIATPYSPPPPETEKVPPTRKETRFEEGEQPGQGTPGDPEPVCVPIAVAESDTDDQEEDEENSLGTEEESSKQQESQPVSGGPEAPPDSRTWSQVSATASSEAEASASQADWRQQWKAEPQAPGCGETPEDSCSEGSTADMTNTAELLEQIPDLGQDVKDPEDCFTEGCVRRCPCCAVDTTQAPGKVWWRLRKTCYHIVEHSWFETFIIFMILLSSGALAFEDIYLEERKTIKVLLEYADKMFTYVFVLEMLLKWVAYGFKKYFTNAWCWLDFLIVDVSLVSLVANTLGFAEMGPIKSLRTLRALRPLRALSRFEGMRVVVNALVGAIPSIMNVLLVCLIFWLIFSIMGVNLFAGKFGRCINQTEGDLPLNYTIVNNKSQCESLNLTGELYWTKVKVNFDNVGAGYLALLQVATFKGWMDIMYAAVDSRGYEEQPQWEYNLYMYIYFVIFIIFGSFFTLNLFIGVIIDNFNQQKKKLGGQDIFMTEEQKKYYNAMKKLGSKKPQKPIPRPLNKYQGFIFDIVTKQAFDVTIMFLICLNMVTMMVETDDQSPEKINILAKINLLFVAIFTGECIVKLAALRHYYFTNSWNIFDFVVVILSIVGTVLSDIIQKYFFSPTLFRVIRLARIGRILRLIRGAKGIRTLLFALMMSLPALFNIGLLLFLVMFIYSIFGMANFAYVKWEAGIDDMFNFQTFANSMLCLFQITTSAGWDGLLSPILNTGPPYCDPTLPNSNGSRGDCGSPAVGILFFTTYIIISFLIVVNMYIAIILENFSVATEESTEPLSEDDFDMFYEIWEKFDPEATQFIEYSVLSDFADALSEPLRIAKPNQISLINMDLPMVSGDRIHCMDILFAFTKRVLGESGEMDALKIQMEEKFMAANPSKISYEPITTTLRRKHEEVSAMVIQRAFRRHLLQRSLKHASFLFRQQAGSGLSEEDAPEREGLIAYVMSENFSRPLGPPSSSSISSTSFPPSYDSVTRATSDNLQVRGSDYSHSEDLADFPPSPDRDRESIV
Procedure, shortened: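 Whole-cell automated patch clamp, HEK293 stably expressing hNav1.5 alpha without beta subunits, 23-25° C, holding −100 mV; bath Na⁺ reduced to 20 mM, CsF-based intracellular pH 7.4. Test compound 1 μM; tonic block at 0.1 Hz, use-dependent block at 3 Hz, % peak block after rundown correction.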

[4] = % inhibition at 1 μM, tonic block, read-out: NAv1.5*-PEAK-TB-
[5] = % inhibition at 1 μM, use-dependent block 3 Hz, read-out: NAv1.5*-PEAK-UDB-3 HZ-
[6] = tonic block of peak INa, 0.1 Hz, 1 μM, read-out: Peak TB 1 μM
[7] = use-dependent block of peak INa, 3 Hz, 1 μM, read-out: Peak UDB 1 μM

Row | Structure (SMILES) | MS Rat THalf [1] | MS Dog THalf [2] | inhibition at 1 µM [3, 4] | inhibition at 1 µM [3, 5] | inhibition at 1 µM [3, 6] | inhibition at 1 µM [3, 7]
1 | O=c1c2cc(-c3ccc(OC(F)(F)F)cc3)ccc2cnn1CCOc1ncccn1 [III-28, 2-(2-(pyrimidin-2-yloxy)ethyl)-7-(4-(trifluoromethoxy)phenyl)phthalazin-1 (2H)-one] | 103 min | 51 min |  |  |  | 
2 | O=c1c2cc(-c3ccc(OC(F)(F)F)cc3)ccc2nnn1CCc1ccncn1 [II-17, 3-(2-(pyrimidin-4-yl)ethyl)-6-(4-(trifluoromethoxy)phenyl)benzo[d][1,2,3]triazin-4(3H)-one] | 24 min | 50 min | 11% | 7% | 11% | 7%
3 | O=C(c1cccnn1)N1CCc2ccc(-c3ccc(C(F)(F)F)cc3)cc2C1 [IX-17, Pyridazin-3-yl(7-(4-(trifluoromethyl)phenyl)-3,4-dihydroisoquinolin-2 (1H)-yl) methanone] | 302 min | > 395 min |  |  |  | 
4 | O=c1c2cc(-c3ccc(OC(F)(F)F)cc3)ccc2nnn1CC1(CN2CCOCC2)CC1 [II-40, 3-((1-(morpholinomethyl)cyclopropyl)methyl)-6-(4-(trifluoromethoxy)phenyl)benzo[d][1,2,3]triazin-4(3H)-one] | 2 min | 2 min | 15% | 29% | 15% | 29%
5 | O=c1c2cc(-c3ccc(OC(F)(F)F)cc3)ccc2nnn1CCOc1ncccn1 [II-32, 3-(2-(pyrimidin-2-yloxy)ethyl)-6-(4-(trifluoromethoxy)phenyl)benzo[d][1,2,3]triazin-4(3H)-one] | 237 min | 36 min | 16% | 21% | 16% | 21%
6 | O=C1c2cc(-c3ccc(C(F)(F)F)cc3)ccc2OCN1Cc1ccccn1 [VIII-1, 3-(pyridin-2-ylmethyl)-6-(4-(trifluoromethyl)phenyl)-2H-benzo[e][1,3]oxazin-4(3H)-one] | 211 min | 210 min | 35% | 26% | 35% | 26%
7 | O=c1c2cc(-c3ccc(OC(F)(F)F)cc3)ccc2nnn1C1CCNCC1 [II-38, 3-(piperidin-4-yl)-6-(4-(trifluoromethoxy)phenyl)benzo[d][1,2,3]triazin-4(3H)-one] | 298 min | 68 min |  |  |  | 
8 | O=C(c1ncccn1)N1CCc2ccc(-c3ccc(C(F)(F)F)cc3)cc2C1 [IX-7, pyrimidin-2-yl(7-(4-(trifluoromethyl)phenyl)-3,4-dihydroisoquinolin-2(1H)-yl)methanone] | > 395 min | > 395 min | 12% | 17% | 12% | 17%
9 | CC1Oc2ccc(-c3ccc(OC(F)(F)F)cc3)cc2C(=O)N1Cc1ncccn1 (stereo not shown) [VIII-7, 2-methyl-3-(pyrimidin-2-ylmethyl)-6-(4-(trifluoromethoxy)phenyl)-2H-benzo[e][1,3]oxazin-4(3H)-one] | 152 min | 392 min |  |  |  | 
10 | COc1cc(OC)nc(Cn2ncc3ccc(-c4ccc(OC(F)(F)F)cc4)cc3c2=O)n1 [III-19, 2-((4,6-dimethoxypyrimidin-2-yl)methyl)-7-(4-(trifluoromethoxy)phenyl)phthalazin-1 (2H)-one] | 72 min | 129 min | 14% | 19% | 14% | 19%
11 | Cc1noc(Cn2nnc3ccc(-c4ccc(OC(F)(F)F)cc4)cc3c2=O)n1 [II-3, 3-((3-methyl-1,2,4-oxadiazol-5-yl)methyl)-6-(4-(trifluoromethoxy)phenyl)benzo[d][1,2,3]triazin-4(3H)-one] | 249 min | 303 min | 19% | 10% | 19% | 10%
12 | O=C1c2cc(-c3ccc(C(F)(F)F)cc3)ccc2CCN1Cc1ncccn1 [IX-3, 2-(pyrimidin-2-ylmethyl)-7-(4-(trifluoromethyl)phenyl)-3,4-dihydroisoquinolin-1(2H)-one] | 355 min | 320 min |  |  |  | 
13 | O=c1c2cc(-c3ccc(OC(F)(F)F)cc3)ccc2nnn1CCc1ncccn1 [II-18, 3-(2-(pyrimidin-2-yl)ethyl)-6-(4-(trifluoromethoxy)phenyl)benzo[d][1,2,3]triazin-4(3H)-one] | 49 min | 74 min | 15% | 13% | 15% | 13%
14 | Cn1cnc(C(=O)N2CCc3ccc(-c4ccc(C(F)(F)F)cc4)cc3C2)c1 [IX-39, (1-methyl-1H-imidazol-4-yl)(7-(4-(trifluoromethyl)phenyl)-3,4-dihydroisoquinolin-2(1H)-yl)methanone] | 281 min | 256 min |  |  |  | 
15 | O=c1c2cc(-c3ccc(OC(F)(F)F)cc3)ccc2cnn1Cc1ncccn1 [III-5, 2-(pyrimidin-2-ylmethyl)-7-(4-(trifluoromethoxy)phenyl)phthalazin-1(2H)-one] | 56 min | 66 min |  |  |  | 
16 | O=c1c2cc(-c3ccc(OC(F)(F)F)cc3)ccc2nnn1Cc1noc(-c2ccccn2)n1 [II-54, 3-((5-(pyridin-2-yl)-1,2,4-oxadiazol-3-yl)methyl)-6-(4-(trifluoromethoxy)phenyl)benzo[d][1,2,3]triazin-4(3H)-one] | 176 min | 28 min | 5% | 8% | 5% | 8%
17 | Cc1nc(Cn2cnc3ccc(-c4ccc(OC(F)(F)F)cc4)cc3c2=O)no1 [IV-9, 3-((5-methyl-1,2,4-oxadiazol-3-yl)methyl)-6-(4-(trifluoromethoxy)phenyl)quinazolin-4(3H)-one] | 243 min | 356 min |  |  |  | 
18 | O=C1c2cc(-c3ccc(OC(F)(F)F)cc3)ccc2CCN1Cc1ncccn1 [IX-1, 2-(pyrimidin-2-ylmethyl)-7-(4-(trifluoromethoxy)phenyl)-3,4-dihydroisoquinolin-1(2H)-one] | 150 min | 157 min |  |  |  | 
19 | O=C1c2cc(-c3ccc(OC(F)(F)F)cc3)ccc2OCN1Cc1ccccn1 [VIII-3, 3-(pyridin-2-ylmethyl)-6-(4-(trifluoromethoxy)phenyl)-2H-benzo[e][1,3]oxazin-4(3H)-one] | 227 min | 164 min | 21% | 12% | 21% | 12%
20 | O=c1c2cc(-c3ccc(OC(F)(F)F)cc3)ccc2cnn1CCn1cccn1 [III-9, 2-(2-(1H-pyrazol-1-yl)ethyl)-7-(4-(trifluoromethoxy)phenyl)phthalazin-1(2H)-one] | 81 min | 27 min | 15% | 15% | 15% | 15%
21 | O=C1c2cc(-c3ccc(OC(F)(F)F)cc3)ccc2OCN1Cc1ncccn1 [VIII-20, 3-(pyrimidin-2-ylmethyl)-6-(4-(trifluoromethoxy)phenyl)-2H-benzo[e][1,3]oxazin-4(3H)-one] |  |  | 27% | 23% |  | 
22 | Cc1ncc(Cn2nnc3ccc(-c4ccc(OC(F)(F)F)cc4)cc3c2=O)o1 [II-95, 3-((2-methyloxazol-5-yl)methyl)-6-(4-(trifluoromethoxy)phenyl)benzo[d][1,2,3]triazin-4(3H)-one] | 121 min | 169 min |  |  |  | 
23 | O=c1c2cc(-c3ccc(OC(F)(F)F)cc3)ccc2nnn1Cc1nnc(C2CC2)o1 [II-67, 3-((5-cyclopropyl-1,3,4-oxadiazol-2-yl)methyl)-6-(4-(trifluoromethoxy)phenyl)benzo[d][1,2,3]triazin-4(3H)-one] | > 395 min | 270 min | 12% | 7% | 12% | 7%
24 | O=c1c2cc(-c3ccc(OC(F)(F)F)cc3)ccc2nnn1Cc1noc(C2CC2)n1 [II-14, 3-((5-cyclopropyl-1,2,4-oxadiazol-3-yl)methyl)-6-(4-(trifluoromethoxy)phenyl)benzo[d][1,2,3]triazin-4(3H)-one] | 375 min | 284 min | 7% | 1% | 7% | 1%
25 | N#Cc1ccnc(OCCn2nnc3ccc(-c4ccc(OC(F)(F)F)cc4)cc3c2=O)n1 [II-36, 2-(2-(4-oxo-6-(4-(trifluoromethoxy)phenyl)benzo[d][1,2,3]triazin-3(4H)-yl)ethoxy)pyrimidine-4-carbonitrile] | 108 min | 124 min | 7% | 8% | 7% | 8%
26 | Cc1noc(Cn2cnc3ccc(-c4ccc(OC(F)(F)F)cc4)cc3c2=O)n1 [IV-6, 3-((3-methyl-1,2,4-oxadiazol-5-yl)methyl)-6-(4-(trifluoromethoxy)phenyl)quinazolin-4(3H)-one] | 190 min | 158 min | 12% | 7% | 12% | 7%

From patent US20150329558A1, “FUSED HETEROCYCLIC COMPOUNDS AS ION CHANNEL MODULATORS” (Gilead Sciences, Inc., priority 2011, published 2015)
